Measured values: ChEMBL document CHEMBL5137114, “Discovery of IHMT-MST1-58 as a Novel, Potent, and Selective MST1 Inhibitor for the Treatment of Type 1/2 Diabetes” (J Med Chem, 2022)
The source made the active and inactive calls. The calls are words filed in the database; no cut-off is given here.

Assays:
[1] = molecular target: T1, Serine/threonine-protein kinase 4 (Homo sapiens, UniProt Q13043); experiment: Inhibition of recombinant full length N-terminal GST -tagged human MST1 expressed in baculovirus infected Sf9 insect cells using KKSRGDYMTMQIG as substrate incubated for 1 hr in presence of ATP by ADP-Glo luminescent assay
T1 sequence (Q13043 whole entry): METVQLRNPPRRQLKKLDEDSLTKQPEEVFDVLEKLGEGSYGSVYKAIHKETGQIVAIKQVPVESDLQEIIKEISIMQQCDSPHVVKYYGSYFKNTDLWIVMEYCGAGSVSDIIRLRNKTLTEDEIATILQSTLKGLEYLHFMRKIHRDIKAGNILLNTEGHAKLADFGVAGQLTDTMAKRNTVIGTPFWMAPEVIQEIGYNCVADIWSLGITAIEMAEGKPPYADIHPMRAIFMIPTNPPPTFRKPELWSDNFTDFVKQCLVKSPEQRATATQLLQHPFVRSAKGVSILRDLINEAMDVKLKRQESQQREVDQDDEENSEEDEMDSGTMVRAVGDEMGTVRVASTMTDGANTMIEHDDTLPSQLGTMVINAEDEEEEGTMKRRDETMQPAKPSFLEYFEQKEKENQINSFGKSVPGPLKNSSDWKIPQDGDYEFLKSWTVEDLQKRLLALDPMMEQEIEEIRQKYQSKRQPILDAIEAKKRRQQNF

[2] = molecular target: T2, Serine/threonine-protein kinase Nek3 (Homo sapiens) (UniProt P51956); experiment: Inhibition of recombinant full length N-terminal GST -tagged human NEK3 expressed in baculovirus expression system using S2 as substrate incubated for 2 hrs by HTRF assay relative to control; conditions: Sf9, concentration not given here
T2 sequence (whole entry): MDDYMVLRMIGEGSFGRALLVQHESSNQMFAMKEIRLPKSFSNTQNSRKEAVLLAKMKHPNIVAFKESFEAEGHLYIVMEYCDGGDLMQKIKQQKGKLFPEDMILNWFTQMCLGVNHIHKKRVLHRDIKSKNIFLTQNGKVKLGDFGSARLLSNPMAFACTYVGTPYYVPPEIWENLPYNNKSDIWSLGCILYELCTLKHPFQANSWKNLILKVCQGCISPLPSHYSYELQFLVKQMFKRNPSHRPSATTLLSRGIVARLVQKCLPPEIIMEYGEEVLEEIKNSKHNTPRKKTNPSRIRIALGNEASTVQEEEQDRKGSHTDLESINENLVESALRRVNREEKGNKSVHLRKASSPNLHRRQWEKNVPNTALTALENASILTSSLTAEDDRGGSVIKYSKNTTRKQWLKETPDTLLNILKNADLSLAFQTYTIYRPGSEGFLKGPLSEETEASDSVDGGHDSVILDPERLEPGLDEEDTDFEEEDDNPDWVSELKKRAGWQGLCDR

[3] = AUC (0 to t) in mouse at 10 mg/kg, po measured up to 24 hrs by LC-MS/MS analysis; format: ADME, organism-based; set-up: time < 24 hrs, dose 10 mg/kg, route po; conditions: in vivo
[4] = Half life in mouse at 10 mg/kg, po measured up to 24 hrs by LC-MS/MS analysis; format: ADME, organism-based; conditions: in vivo
[5] = Oral bioavailability in mouse at 10 mg/kg measured up to 24 hrs by LC-MS/MS analysis; format: ADME, organism-based; conditions: in vivo
[6] = AUC (0 to t) in Sprague-Dawley rat at 1 mg/kg, iv measured up to 12 hrs by LC-MS/MS analysis; format: ADME, organism-based; set-up: dose 1 mg/kg, time < 12 hrs, route iv; conditions: in vivo
[7] = AUC (0 to t) in Beagle dog at 1 mg/kg, iv measured up to 12 hrs by LC-MS/MS analysis; format: ADME, organism-based, Canis lupus familiaris; set-up: time < 12 hrs, dose 1 mg/kg, route iv; conditions: in vivo
[8] = Cmax in mouse Pancreas at 50 mg/kg, po measured up to 24 hrs by LC-MS/MS analysis; format: ADME, organism-based; set-up: dose 50 mg/kg, time < 24 hrs, route po
Mus musculus [9] = experiment: Antidiabetic activity against 8 hrs fasted multi low dose STZ-induced C57BL/6J mouse model of type 1 diabetes assessed as decrease in fasting blood glucose level at 50 mg/kg, po administered measured immediately in presence of metformin (reference value: 19.3 mmol/L); format: functional
Mus musculus [10] = experiment: Antidiabetic activity against multi low dose STZ-induced C57BL/6J mouse model of type 1 diabetes assessed as food intake at 50 mg/kg, po administered for 1 to 2 days (reference value: 4.5 g/day); format: functional; conditions: time 1-2 day
Mus musculus [11] = experiment: Antidiabetic activity in multi low dose STZ-induced C57BL/6J mouse model of type 1 diabetes assessed as reduction in HbA1c level at 50 mg/kg, po qd administered in presence of metformin (reference value: 7.6 %); format: functional; set-up: scale not given: the % may be the effect or the level left
Mus musculus [12] = experiment: Antidiabetic activity against high fat diet-STZ-induced C57BL/6J mouse model of type 2 diabetes assessed as improvement in food intake at 50 mg/kg, po qd administered upto 106 days in presence of metformin; format: functional, organism-based; conditions: time <= 106.0 day
Mus musculus [13] = experiment: Antidiabetic activity against high fat diet-STZ-induced C57BL/6J mouse model of type 2 diabetes assessed as improvement in water consumption at 50 mg/kg, po qd administered upto 106 days in presence of metformin; format: functional, organism-based; conditions: time <= 106.0 day
Mus musculus [14] = experiment: Antidiabetic activity in 12 to 14 hrs fasted high fat diet-STZ-induced C57BL/6J mouse model of type 2 diabetes assessed as reduction on blood glucose at 50 mg/kg, po qd pretreated with compound followed by glucose challenge measured upto 180 mins by IPGTT assay; format: functional, organism-based
[15] = Toxicity in high fat diet-STZ-induced C57BL/6J mouse model of type 2 diabetes assessed as effect on pancreas morphology at 250 mg/kg, po qd in presence of metformin by H and E staining based analysis; format: organism-based; conditions: in vivo
INS1 = experiment: Protection against IFN-gamma-induced cell damage in rat INS1 cells assessed as increase in cell survival at 0.03 to 0.3 uM incubated for 48 hrs by Cell Titer-Glo assay; format: functional, cell-based; conditions: dose 0.03-0.3 µM
RIN-m5F = experiment: Protection against IFN-gamma-induced cell damage in rat RIN-m5F cells assessed as increase in cell survival at 0.03 to 0.3 uM incubated for 48 hrs by Cell Titer-Glo assay; format: functional, cell-based; conditions: dose 0.03-0.3 µM
[16] = system: Serine/threonine-protein kinase 4 (Rattus norvegicus); experiment: Inhibition of IL-1beta-stimulated MST1 phosphorylation in rat RIN-m5F cells incubated for 12 hrs by Western blotting analysis; conditions: dose 0.1-10 µM, DDE = dose-dependent effect

- IC50 [1]: 23 nM
- inhibition [2]: 0.85%
- AUC(0-t) at 24 h [3]: 5580 ng·h/mL
- half-life [4]: 1.81 h
- bioavailability [5]: 111%
- AUCt [6]: 2553 ng·h/mL
- AUC(0-t) at 12 h [7]: 764 ng·h/mL
- Cmax [8]: 12200 ng/mL
- inhibition [16]: Dde
Structure (SMILES): Cc1ccccc1C1C(=O)N(C)c2cnc(Nc3ccc(S(N)(=O)=O)cc3)nc2N1C (stereo not drawn)
- Activity (Mus musculus [9]): 19.3 mmol/L
- Activity (Mus musculus [10]): 4.5 g/day
- Activity (Mus musculus [11]): 6.1%
- Activity (Mus musculus [12]): Active
- Activity (Mus musculus [13]): Active
- Activity (Mus musculus [14]): Active
- Activity [15]: Non-Toxic
- Activity (INS1): Active
- Activity (RIN-m5F): Active
